Here are results for 44 compounds from ChEMBL document CHEMBL5241054, “Effective anti-aromatase therapy to battle against estrogen-mediated breast cancer: Comparative SAR/QSAR assessment on steroidal aromatase inhibitors” (Eur J Med Chem, 2020).

One may read the IC50 as the concentration that gives 50% inhibition. Higher therefore signals weaker potency. One may read the pIC50 as the negative decadic logarithm of the IC50, by convention in mol/L.

Molecules are shown by their SMILES. Several values for one entry are separate records, joined by “and”; a condition that tells them apart may be missing. Equal values may be shown once.

Data set [1] deals with T1, Aromatase (Homo sapiens, UniProt P11511).
T1 sequence (P11511 whole entry): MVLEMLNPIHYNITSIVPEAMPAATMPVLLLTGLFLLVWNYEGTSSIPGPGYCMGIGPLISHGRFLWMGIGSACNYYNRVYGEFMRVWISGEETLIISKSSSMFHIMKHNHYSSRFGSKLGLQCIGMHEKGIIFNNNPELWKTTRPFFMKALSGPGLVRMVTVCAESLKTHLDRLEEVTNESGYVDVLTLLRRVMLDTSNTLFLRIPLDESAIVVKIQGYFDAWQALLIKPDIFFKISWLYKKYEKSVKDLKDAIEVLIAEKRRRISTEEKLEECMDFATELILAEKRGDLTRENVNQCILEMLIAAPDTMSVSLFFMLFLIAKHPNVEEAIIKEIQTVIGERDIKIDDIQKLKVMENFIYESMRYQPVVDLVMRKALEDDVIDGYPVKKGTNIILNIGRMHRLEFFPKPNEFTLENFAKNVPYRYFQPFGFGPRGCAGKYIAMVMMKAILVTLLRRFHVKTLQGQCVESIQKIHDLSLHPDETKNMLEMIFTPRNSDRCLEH

Data set [2] concerns the target T1, Aromatase. The source holds these as a separate data set.
In data set [3] the target is T1, Aromatase. The source holds these as a separate data set.
Data set [4] concerns the target T1, Aromatase. Nature of the data set: Binding affinity to aromatase (unknown origin) assessed as change in gibbs free energy.

In the case of `C[C@]12C=CC(=O)C=C1C[C@@H](Cc1ccccc1)[C@@H]1[C@@H]2CC[C@]2(C)C(=O)CC[C@@H]12`, the IC50 at Aromatase [1] was 19.2 nM; against Aromatase [2] it was 232 nM.

As for `C[C@]12C=CC(=O)C=C1C[C@@H](CCc1ccccc1)[C@@H]1[C@@H]2CC[C@]2(C)C(=O)CC[C@@H]12`, the IC50 is 155 nM against Aromatase [1] and 16.7 nM on Aromatase [2].

On to `C[C@]12CCC(=O)C=C1C=C(Cc1ccc([N+](=O)[O-])cc1)[C@@H]1[C@@H]2CC[C@]2(C)C(=O)CC[C@@H]12`, for which the IC50 at Aromatase [1] is 94 nM; at Aromatase [2], 929 nM.

As to `C[C@]12CCC(=O)C=C1C=C(CCc1ccccc1)[C@@H]1[C@@H]2CC[C@]2(C)C(=O)CC[C@@H]12`, the IC50 against Aromatase [1] is 174 nM; against Aromatase [2], 661 nM.

For `C[C@]12CCC(=O)C=C1C=C(Cc1ccccc1)[C@@H]1[C@@H]2CC[C@]2(C)C(=O)CC[C@@H]12`, the figures for the IC50 at Aromatase [1] and against Aromatase [2] were 61 nM and 600 nM, respectively.

With `C[C@]12CC[C@H](O)CC1=CC[C@@H]1[C@@H]2CC[C@]2(C)C(=O)[C@@H](n3ccnc3)C[C@@H]12`, the negative logarithm of the IC50 (pIC50) against Aromatase [3] was 5.481.

`C[C@]12CCC(=O)C=C1C=C(CCc1ccc([N+](=O)[O-])cc1)[C@@H]1[C@@H]2CC[C@]2(C)C(=O)CC[C@@H]12`: the IC50 against Aromatase [1] was 95.1 nM; on Aromatase [2], 4500 nM.

In the case of `C[C@]12C=CC(=O)C=C1C[C@@H](CCCc1ccccc1)[C@@H]1[C@@H]2CC[C@]2(C)C(=O)CC[C@@H]12`, the IC50 is 63.7 nM at Aromatase [1] and 7.69 nM on Aromatase [2].

On to `C[C@]12C=CC(=O)C=C1C[C@@H](CCCc1ccc([N+](=O)[O-])cc1)[C@@H]1[C@@H]2CC[C@]2(C)C(=O)CC[C@@H]12`, for which the IC50 against Aromatase [1] is 75.7 nM; on Aromatase [2], 12.9 nM.

Consider `C[C@]12CCC(=O)C(O)=C1CC[C@@H]1[C@@H]2CC[C@]2(C)C(=O)CC[C@@H]12` [FORMESTANE], for which the deltaG at Aromatase [4] is reported as 13.35 kcal/mol. The same compound gave an IC50 at Aromatase [1] of 562 nM.

Consider `C[C@]12CCC(=O)C=C1C(=O)C[C@@H]1[C@@H]2CC[C@]2(C)C(=O)CC[C@@H]12`, for which the IC50 against Aromatase [1] was 280 nM; on Aromatase [2], 1100 nM and 280 nM.

`C[C@]12CCC(=O)C=C1C=C(Cc1ccc(N)cc1)[C@@H]1[C@@H]2CC[C@]2(C)C(=O)CC[C@@H]12`: the IC50 at Aromatase [1] is 87.9 nM; against Aromatase [2], 490 nM.

`CN1N=C2[C@H](C[C@H]3[C@@H]4CC[C@H]5C[C@@H](OC(=O)C(F)(F)F)CC[C@]5(C)[C@H]4CC[C@]23C)[C@H]1c1ccccc1`: the IC50 on Aromatase [2] was 5810 nM.

`C[C@]12C=CC(=O)C=C1C=C(CCc1ccccc1)[C@@H]1[C@@H]2CC[C@]2(C)C(=O)CC[C@@H]12` showed a concentration for half-maximal inhibition (IC50) on Aromatase [2] of 172 nM.

In the case of `C[C@]12CCC(=O)C=C1C=C(CCc1ccc(N)cc1)[C@@H]1[C@@H]2CC[C@]2(C)C(=O)CC[C@@H]12`, the IC50 against Aromatase [1] was 87.9 nM; on Aromatase [2] it was 1250 nM.

Compound `C[C@]12CCCC[C@@H]1CC[C@@H]1[C@@H]2CC[C@]2(C)C(=O)CC[C@@H]12` showed an IC50 against Aromatase [2] of 2300 nM.

`C[C@]12CC[C@H](OC(=O)C(F)(F)F)C[C@@H]1CC[C@@H]1[C@@H]2CC[C@]2(C)C3=NN(c4ccccc4)[C@H](c4ccccc4)[C@H]3C[C@@H]12` showed an IC50 against Aromatase [2] of 5680 nM.

As for `C[C@]12CCC(=O)C=C1[C@@H](Oc1ccccc1)C[C@@H]1[C@@H]2CC[C@]2(C)C(=O)CC[C@@H]12`, the IC50 against Aromatase [2] is 100 nM.

`CCO[C@@H]1C[C@@H]2[C@H](CC[C@]3(C)C(=O)CC[C@@H]23)[C@@]2(C)C=CC(=O)C=C12` showed an IC50 against Aromatase [2] of 560 nM.

As for `C[C@@H]1C[C@@]2(C)C(=CC1=O)CC[C@@H]1[C@@H]2CC[C@]2(C)C(=O)CC[C@@H]12`, the IC50 on Aromatase [1] was 460 nM; against Aromatase [2] it was 250 nM and 460 nM.

For the compound `CC(=O)O[C@@H]1C[C@@H]2[C@H](CC[C@]3(C)C(=O)CC[C@@H]23)[C@@]2(C)CCC(=O)C=C12`, the IC50 at Aromatase [2] is 20000 nM.

`C/C=C1\CC[C@@]2(C)[C@@H](CC[C@@H]3[C@@H]2CC[C@]2(C)C4=NN(c5ccccc5)[C@H](c5ccccc5)[C@H]4C[C@@H]32)C1`: on Aromatase [2], the IC50 is 3340 nM.

For `CC(=O)N1N=C2[C@H](C[C@H]3[C@@H]4CC[C@H]5CC(=O)CC[C@]5(C)[C@H]4CC[C@]23C)[C@H]1c1ccccc1`, the IC50 against Aromatase [2] is 4910 nM.

In the case of `CCCCCC(=O)O[C@@H]1C[C@@H]2[C@H](CC[C@]3(C)C(=O)CC[C@@H]23)[C@@]2(C)C=CC(=O)C=C12`, the IC50 at Aromatase [2] was 1800 nM.

Regarding `CCOC1=C[C@@H]2[C@H](CC[C@]3(C)C(=O)CC[C@@H]23)[C@@]2(C)C=CC(=O)C=C12`, the IC50 at Aromatase [2] is 951 nM.

At Aromatase [2], `CSCSC1=C2CC[C@@H]3C(=CC[C@]4(C)C(=O)CC[C@@H]34)[C@@]2(C)CCC1=O` showed an IC50 of 1200 nM.

The compound `CCC(=O)N1N=C2[C@H](C[C@H]3[C@@H]4CC[C@H]5C[C@@H](OC(=O)C(F)(F)F)CC[C@]5(C)[C@H]4CC[C@]23C)[C@H]1c1ccc(OC)cc1` showed an IC50 against Aromatase [2] of 6610 nM.

Compound `COc1ccc(/C=C2/C[C@H]3[C@@H]4CC[C@H]5C[C@@H](O)CC[C@]5(C)[C@H]4CC[C@]3(C)C2=O)cc1` had an IC50 at Aromatase [2] of 7130 nM.

Compound `C[C@]12CCC(=O)C[C@@H]1C(=O)C[C@@H]1[C@@H]2CC[C@]2(C)C(=O)CC[C@@H]12` showed an IC50 at Aromatase [2] of 4000 nM.

Take `COc1ccc([C@H]2NN=C3[C@@H]2C[C@H]2[C@@H]4CC[C@H]5CC(=O)CC[C@]5(C)[C@H]4CC[C@]32C)cc1`: the IC50 at Aromatase [2] is 4880 nM.

`COc1ccc([C@@H]2[C@H]3C[C@H]4[C@@H]5CCC6=CC(=O)C=C[C@]6(C)[C@H]5CC[C@]4(C)C3=NN2C)cc1` had an IC50 at Aromatase [2] of 2110 nM.

On Aromatase [2], `CCCCCCC(=O)O[C@@H]1C[C@@H]2[C@H](CC[C@]3(C)C(=O)CC[C@@H]23)[C@@]2(C)CCC(=O)C=C12` gave a concentration for half-maximal inhibition (IC50) of 1500 nM.

On Aromatase [2], `C[C@]12CCC(=O)C=C1[C@H](Oc1ccccc1)C[C@@H]1[C@@H]2CC[C@]2(C)C(=O)CC[C@@H]12` gave an IC50 of 23000 nM.

As for `COc1ccc([C@@H]2[C@H]3C[C@H]4[C@@H]5CC[C@H]6C[C@@H](OC(=O)C(F)(F)F)CC[C@]6(C)[C@H]5CC[C@]4(C)C3=NN2C)cc1`, at Aromatase [2], half-maximal inhibition (IC50) was put at 5780 nM.

The compound `CC(=O)O[C@H]1C[C@@H]2[C@H](CC[C@]3(C)C(=O)CC[C@@H]23)[C@@]2(C)CCC(=O)C=C12` gave an IC50 on Aromatase [2] of 4000 nM.

In the case of `COc1ccc(/C=C2/C[C@H]3[C@@H]4CC[C@H]5C[C@@H](OC(=O)C(F)(F)F)CC[C@]5(C)[C@H]4CC[C@]3(C)C2=O)cc1`, at Aromatase [2], the IC50 was 7000 nM.

The compound `CSC1=C2CC[C@@H]3[C@H](CC[C@]4(C)C(=O)CC[C@@H]34)[C@@]2(C)CCC1=O` showed an IC50 at Aromatase [2] of 4400 nM.

In turn, `C[C@]12CCC(=O)C(S)=C1CC[C@@H]1C2=CC[C@]2(C)C(=O)CC[C@@H]12` showed an IC50 at Aromatase [2] of 3800 nM.

On Aromatase [2], `C[C@]12C=CC(=O)C=C1[C@@H](Oc1ccccc1)C[C@@H]1[C@@H]2CC[C@]2(C)C(=O)CC[C@@H]12` gave a half-maximal inhibitory concentration (IC50) of 530 nM.

Compound `CO[C@H]1C[C@@H]2[C@H](CC[C@]3(C)C(=O)CC[C@@H]23)[C@@]2(C)CCC(=O)C=C12` showed an IC50 against Aromatase [2] of 540 nM.

On to `C[C@]12C=CC(=O)C=C1CC[C@@H]1[C@@H]2CC[C@]2(C)C3=NN(c4ccccc4)[C@H](c4ccccc4)[C@H]3C[C@@H]12`, for which the IC50 against Aromatase [2] is 1980 nM.

At Aromatase [2], `CCOC1=C[C@@H]2[C@H](CC[C@]3(C)C(=O)CC[C@@H]23)[C@@]2(C)CCC(=O)C=C12` had an IC50 of 750 nM.

At Aromatase [2], `COCOC1=C2CC[C@@H]3[C@H](CC[C@]4(C)C(=O)CC[C@@H]34)[C@@]2(C)CCC1=O` showed an IC50 of 4400 nM.

On Aromatase [2], `CCCCCCC(=O)O[C@H]1C[C@@H]2[C@H](CC[C@]3(C)C(=O)CC[C@@H]23)[C@@]2(C)CCC(=O)C=C12` gave an IC50 of 95.1 nM.
